Values quoted from earlier work in US7629342B2, “Azabicyclic heterocycles as cannabinoid receptor modulators” (Bristol-Myers Squibb Company, priority 2005, dated 2009).

Assays:
[1] = highest dose; relative to 14.8% for placebo
[2] = 16 week trial period, Phase IIb
[3] = chronic administration for two weeks

Row | SMILES | patients stayed abstinent from cigarette smoke [1] [%] | body weight in human subjects [2] | body weight [3]
1 | Cc1c(C(=O)NN2CCCCC2)nn(-c2ccc(Cl)cc2Cl)c1-c1ccc(Cl)cc1 [SR-141716] | 30.2 | dose-dependently reduced body weight | 
2 | Cc1c(C(=O)NN2CCCCC2)nn(-c2ccc(Cl)cc2Cl)c1-c1ccc(I)cc1 [AM-251] |  |  | substantial body weight reduction
